Test results as given in patent publication US9314458B2, “Topical use of ingenol-3-angelate or a salt thereof to treat skin cancer” (LEO Laboratories Limited, priority 2000, dated 2016).
Blank lines part the entries; values can stand above or below the compound they belong to.

How the values were obtained:
rat brain PKC = experiment: PKC kinase activity, PepTag non-radioactive protein kinase assay; format: biochemical; conditions: PepTag gel; various dilutions of TPA; ether extract final dilution 1 in 5; crude sap and aqueous layer diluted 1/25
Procedure: The kinase activity of rat brain PKC (Promega) was determined using the Peptag™ Non-Radioactive Protein Kinase Kit (Promega). Using agarose gel electrophoresis the technique visualises the opposing electrostatic charge of a fluorescently labeled peptide ([sequence]) compared to the phosphorylated version of the same peptide.
The reaction mixture was separated by gel electrophoresis, showing migration of the unreacted substrate (a) to the anode (top), and the product (b), which is more negatively charged because of phosphorylation by PKC, moving towards the cathode (bottom).

HIV-strain pNL4-3 = experiment: HIV-1 replication in acutely infected PBMC (CA-p24 ELISA); format: cell-based; conditions: 2.8 nM
Procedure: Experiments were conducted to assess the effect of the compounds of the instant invention on HIV-1 replication in acutely infected T cells. Peripheral blood mononuclear cells (PBMC) were obtained from non-HIV-1, non-HIV-2, non-Hepatitis B/C infected donors, stimulated with phytohemagglutinin-M and grown in culture media supplemented with 10 U/mL interleukin-2. The activated PBMC were infected with […] (Low Titre) and 100 ng (High Titre) of CA-p24 equivalents of the HIV-strain pNL4-3. Cells were infected for two hr after which, the virus was removed and the cells were washed with culture media. Equivalent numbers of cells were seeded into 24 well plates and compounds were added to the cultured cells that included: TPA at 8 nM and 80 nM, Ingenol at 280 nM, PEP003 at 500 nM, 50 nM and 5 nM, or PEP004 at dilutions of 1×10^4 and 1×10^5 from the stock (final concentrations). In addition, uninfected activated PBMC were grown in the presence of TPA (80 nM), Ingenol (280 nM), PEP003 (500 nM) and PEP004 (1×10^4 dilution). Other cultures were neither infected nor treated with any compound, or infected but not treated with any compound. Supernatant was removed from each culture at day 0, 3, 7, and 10. The amount of HIV-1 CA-p24 was determined using a commercially available ELISA assay. Three independent experiments were performed.

[1] = system: phorbol ester binding site of PKC; experiment: [3H]-phorbol dibutyrate competition assay, rat brain homogenate
Procedure: A competition assay was performed to determine whether the diterpene esters of the instant invention bind to the phorbol ester binding site of PKC. […] This binding was not blocked by co-incubation with bisindolylmaleimide.

[2] = system: peripheral blood mononuclear cells; experiment: Phagocytosis with fluorescent beads; format: cell-based; conditions: 30 min, whole heparinized blood
Procedure: Phagocytosis by peripheral blood mononuclear cells (PBMCs) was assayed (Steinkamp et al., 1982) using 1 μm Fluoresbrite™ yellow-green fluorescent latex spheres (Polysciences, Inc., Warrington, Pa.). A sample of whole, heparinized blood was treated with drug and 5×10E7 fluorescent latex beads in 10 μL of PBS added per mL of suspension. Cells were incubated and maintained in suspension for 30 min by means of a shaker platform at 37° C. The stimulated and non-stimulated samples were then lysed to isolate PBMCs. The PBMCs were run on the flow cytometer measuring FITC (excitation at 488 nm, emission at 525±20 nm), gated for fluorescence (phagocytosed spheres) and light scatter (cell size).

adenovirus 5 = experiment: Adenovirus replication in human melanoma cells; format: cell-based; conditions: 2 days
Description: Human melanoma cells were infected with ten-fold dilutions of adenovirus 5 in culture, treated with dilutions of PEP005, PEP006, PEP008 and PEP010 and adenovirus replication determined 2 days later by immunhistochemical detection of virus-replicating cells.

PKCθ = target: T1, PKCθ (Homo sapiens, UniProt Q04759); experiment: EGFP-PKC translocation in HeLa cells (PKCθ); format: cell-based; conditions: one hour, same concentrations
T1 construct: host or cells: HeLa cells
Procedure: (§1) Five EGFP-PKC isoforms (Clontech) were available for this experiment, enabling the screening of the three predominant PKC families (i.e. classical, novel and atypical PKCs). The members of the various PKC families are α, β, and γ (classical), θ (novel) and ζ (atypical).
(§2) HeLa cells were plated out in a 24-well plate containing coverslips and transfected with PKC isoforms fused to EGFP, using a commercially available effectine-transfection kit (QIAGEN, Pty. Ltd.). Cells were exposed to the transfection reagents for 16-24 hr. Subsequently, transfected cells were treated for one hour with TPA (100 ng/mL), bryostatin-1 (5 pg/mL), PEP003 (2.25 μg/mL; 5 μM) or PEP005 ([…]) 1.5 μM). Following treatment, cells were fixed on coverslips and mounted on glass slides. The slides were subsequently examined visually by fluorescence microscopy, photographed, and over 150 cells were counted/treatment/PKC isoform. Counted cells were classified according to the localisation of the PKC-EGFP fluorescence as either cytoplasmic or plasma membrane using ImagePro™ 4.1 (FIG. 5). […] The number of these cells was also counted. Results are presented as an average and standard deviation of percentages of cells (Table 1).

PKCζ = target: T2, PKCζ (Homo sapiens, UniProt Q05513); experiment: EGFP-PKC translocation in HeLa cells (PKCζ); format: cell-based; conditions: one hour, same concentrations
T2 construct: host or cells: HeLa cells
T2 sequence (Q05513 1-592): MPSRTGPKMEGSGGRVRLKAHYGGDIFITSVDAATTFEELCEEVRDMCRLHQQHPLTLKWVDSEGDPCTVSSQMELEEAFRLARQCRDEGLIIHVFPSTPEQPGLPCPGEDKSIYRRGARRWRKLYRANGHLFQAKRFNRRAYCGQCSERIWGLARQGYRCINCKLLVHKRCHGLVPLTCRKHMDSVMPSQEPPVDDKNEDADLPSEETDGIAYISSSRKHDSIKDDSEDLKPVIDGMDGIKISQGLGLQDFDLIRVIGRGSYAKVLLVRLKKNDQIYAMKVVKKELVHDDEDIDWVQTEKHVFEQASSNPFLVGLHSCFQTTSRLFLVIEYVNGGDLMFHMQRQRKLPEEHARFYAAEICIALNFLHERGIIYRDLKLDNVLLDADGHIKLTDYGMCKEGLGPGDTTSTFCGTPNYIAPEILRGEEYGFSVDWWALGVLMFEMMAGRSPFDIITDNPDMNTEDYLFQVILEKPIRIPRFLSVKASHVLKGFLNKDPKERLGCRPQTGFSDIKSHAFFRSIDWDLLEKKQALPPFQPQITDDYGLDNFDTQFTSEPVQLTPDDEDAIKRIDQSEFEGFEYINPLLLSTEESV
Procedure: as §1, §2

PKCγ = target: T3, PKCγ (Homo sapiens, UniProt P05129); experiment: EGFP-PKC translocation in HeLa cells (PKCγ); format: cell-based; conditions: one hour, TPA 100 ng/mL, bryostatin-1 5 pg/mL, PEP003 2.25 μg/mL (5 μM), PEP005 670 μg/mL (1.5 μM)
T3 construct: host or cells: HeLa cells
Procedure: as §1, §2

PKCα = target: T4, PKCα (Homo sapiens, UniProt P17252); format: cell-based; conditions: HeLa, one hour; TPA 100 ng/mL, bryostatin-1 5 pg/mL, PEP003 2.25 μg/mL (5 μM)
T4 construct: host or cells: HeLa cells
Procedure: as §1
as §2, with “counted.” for “counted. Results are presented as an average and standard deviation of percentages of cells (Table 1).”

PKCβ = target: T5, PKCβ (Homo sapiens, UniProt P05771); experiment: EGFP-PKC translocation in HeLa cells (PKCβ); format: cell-based; conditions: one hour
T5 construct: host or cells: HeLa cells
Procedure: as §1, §2

[3] = system: Peripheral blood mononuclear cells (granulocytes, monocytes, lymphocytes); experiment: Respiratory burst, DCFH-DA H2O2 flow cytometry; format: cell-based; conditions: 15 min at 37° C.
Procedure: Experiments were also carried out using 2′,7′-dichlorofluorescein diacetate (DCFH-DA) to measure the production of H2O2. (J P Robinson, Oxidative burst methods, in Handbook of Flow Cytometry Methods, Wiley-Liss Inc, pp 147-149, 1993). H2O2 oxidizes the non-fluorescent probe (DCFH-DA) to a fluorescent probe that can then be detected by a flow cytometer. Peripheral blood mononuclear cells (PBMC) were extracted from a donor blood sample by lysis of heparinized blood and used in a suspension of 1×10^6/mL of phosphate buffer, pH 7.3. The cells were then incubated with DCFH-DA (1 μL/mL of 20 mM stock) for 15 minutes to allow it to be taken up and trapped by hydrolysis with cellular esterases. The cells were then stimulated by test compounds for 15 min at 37° C. Controls included in the experiment were unloaded control (cells with no DCFH-DA) and loaded control (cells with DCFH-DA, but no stimulation). These were used to monitor the non-specific oxidation of unstimulated cells. The cells were then analyzed on the flow cytometer (excitation at 488 nm, emission at 525±20 nm), gating each sample for individual cell populations—granulocytes, monocytes and lymphocytes (Table 3).

[4] = system: MM96L human melanoma cells; experiment: Pretreated MM96L cells, killing by untreated leukocytes; format: cell-based; conditions: targets pretreated with 60 ng/mL for 20 hr, 100:1 effector:target
Procedure: (§3) Leukocytes obtained by lysis of human peripheral blood were added to 5000 MM96L human melanoma cells or 7000 neonatal foreskin fibroblasts per microtitre well at effector: target ratios of 1000, 100 and 10:1. The target cells had been treated with 60 ng/mL PEP008 for 20 hr beforehand, and washed and the medium replaced before the leukocytes were added. After 48 hr incubation with the leukocytes the cultures were washed and labelled with [3H]-thymidine for 2 hr. […] Untreated leukocytes had no effect on cell survival.

[5] = system: neonatal foreskin fibroblasts; experiment: Leukocytes plus drug, killing of fibroblasts ([3H]-thymidine); format: cell-based, human; conditions: 60 ng/mL, 48 hr, 100:1 effector:target
Procedure: (§4) Leukocytes obtained by lysis of human peripheral blood were added to 5000 MM96L human melanoma cells or 7000 neonatal foreskin fibroblasts per microtitre well at effector: target ratios of 1000, 100 and 10:1. Ing9 (60 ng/mL) was added and after 48 hr incubation the cultures were washed and labelled with [3H]-thymidine for 2 hr. […] Untreated leukocytes had no effect on cell survival.

[6] = system: MM96L human melanoma cells; experiment: Leukocytes plus drug, killing of MM96L cells ([3H]-thymidine); format: cell-based; conditions: 60 ng/mL, 48 hr, 100:1 effector:target
Procedure: as §4

[7] = system: neonatal foreskin fibroblasts; experiment: Pretreated fibroblasts, killing by untreated leukocytes; format: cell-based, human; conditions: targets pretreated with 60 ng/mL for 20 hr, 100:1 effector:target
Procedure: as §3

T5 sequence (P05771 whole entry, species assumed): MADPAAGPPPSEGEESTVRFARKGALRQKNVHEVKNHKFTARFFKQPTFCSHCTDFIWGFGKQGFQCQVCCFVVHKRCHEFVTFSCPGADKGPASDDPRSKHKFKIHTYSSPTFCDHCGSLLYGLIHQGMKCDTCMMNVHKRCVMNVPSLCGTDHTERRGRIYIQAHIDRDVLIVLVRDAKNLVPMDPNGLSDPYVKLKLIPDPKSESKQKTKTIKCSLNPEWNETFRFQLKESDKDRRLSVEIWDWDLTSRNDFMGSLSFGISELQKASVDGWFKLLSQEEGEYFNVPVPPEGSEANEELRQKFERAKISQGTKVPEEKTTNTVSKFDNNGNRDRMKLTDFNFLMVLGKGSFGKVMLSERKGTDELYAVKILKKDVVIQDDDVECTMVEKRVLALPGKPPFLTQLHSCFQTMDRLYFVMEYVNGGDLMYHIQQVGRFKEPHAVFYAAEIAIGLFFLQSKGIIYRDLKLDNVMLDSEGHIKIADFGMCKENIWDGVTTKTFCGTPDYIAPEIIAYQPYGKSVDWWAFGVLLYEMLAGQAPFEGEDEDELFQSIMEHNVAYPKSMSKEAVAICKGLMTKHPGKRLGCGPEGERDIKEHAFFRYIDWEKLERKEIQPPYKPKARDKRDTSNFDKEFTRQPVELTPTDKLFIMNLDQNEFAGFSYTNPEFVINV
T1 sequence (Q04759 whole entry): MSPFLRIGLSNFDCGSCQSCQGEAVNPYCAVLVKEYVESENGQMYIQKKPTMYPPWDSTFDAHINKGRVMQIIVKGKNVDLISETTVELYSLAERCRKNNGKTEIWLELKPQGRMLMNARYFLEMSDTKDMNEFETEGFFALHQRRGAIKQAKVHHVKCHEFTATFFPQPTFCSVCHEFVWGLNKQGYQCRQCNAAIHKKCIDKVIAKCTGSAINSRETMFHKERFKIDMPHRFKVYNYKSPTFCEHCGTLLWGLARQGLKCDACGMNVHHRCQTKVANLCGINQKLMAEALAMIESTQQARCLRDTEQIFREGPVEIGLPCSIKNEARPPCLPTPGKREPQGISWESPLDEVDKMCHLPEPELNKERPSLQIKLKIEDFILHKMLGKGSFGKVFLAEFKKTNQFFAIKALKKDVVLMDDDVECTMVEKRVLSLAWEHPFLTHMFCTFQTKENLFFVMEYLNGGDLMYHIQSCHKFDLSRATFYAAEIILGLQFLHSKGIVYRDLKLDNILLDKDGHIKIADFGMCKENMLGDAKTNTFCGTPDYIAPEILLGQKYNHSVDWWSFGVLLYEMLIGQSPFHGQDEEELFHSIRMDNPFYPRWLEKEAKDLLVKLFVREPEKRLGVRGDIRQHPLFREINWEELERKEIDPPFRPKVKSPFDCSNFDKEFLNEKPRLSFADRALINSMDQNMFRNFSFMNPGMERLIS

Compound: phosphatidyl serine
activation of PKC (FIG. 1) (rat brain PKC): strong activation

Compound: CC1=C[C@]23C(=O)[C@@H](C=C(CO)[C@@H](O)[C@]2(O)[C@H]1O)[C@H]1[C@@H](C[C@H]3C)C1(C)C [Ingenol]
reduction of HIV-1 replication rate (HIV-strain pNL4-3): approximately 35%

binds to the phorbol ester binding site of PKC [1]: does not
Compound: bisindolylmaleimide

Compound: C/C=C(/C)C(=O)O[C@H]1C(C)=C[C@]23C(=O)[C@H](C=C(C)[C@@H](O)[C@]12O)[C@H]1[C@@H](C[C@H]3C)C1(C)C [PEP006, 20-deoxy-ingenol-3-angelate]
phagocytosis of fluorescent latex spheres in PBMCs [2]: stimulate phagocytosis
increase in adenovirus replication (number of stained cells) (adenovirus 5; 295 ng/mL): 256%

Compound: C/C=C(/C)C(=O)O[C@H]1C(C)=C[C@]23C(=O)[C@@H](C=C(CO)[C@@H](O)[C@]12O)[C@H]1[C@@H](C[C@H]3C)C1(C)C [PEP005, ingenol-3-angelate]
translocation of PKCθ (PKCθ): does not induce any change
translocation of PKCζ (PKCζ): fail to induce translocation
phagocytosis of fluorescent latex spheres in PBMCs [2]: stimulate phagocytosis
translocation of PKCγ from cytoplasm to plasma membrane (PKCγ): translocated from the cytoplasm to the plasma membrane
increase in adenovirus replication (number of stained cells) (adenovirus 5; 67 ng/mL): 344%
translocation of PKCα from cytoplasm to plasma membrane (PKCα): translocated from the cytoplasm to the plasma membrane
number of PKCβ transfected cells with Golgi-like fluorescence (PKCβ): decreases the number of cells
translocation of PKCβ from cytoplasm to plasma membrane (PKCβ; TPA 100 ng/mL, bryostatin-1 5 pg/mL, PEP003 2.25 μg/mL (5 μM), PEP005 670 μg/mL (1.5 μM)): translocated from the cytoplasm to the plasma membrane

Compound: CCC/C=C/C=C/C(=O)O[C@H]1/C(=C/C(=O)OC)C[C@H]2C[C@H]([C@@H](C)O)OC(=O)C[C@H](O)C[C@@H]3C[C@H](OC(C)=O)C(C)(C)[C@](O)(C[C@@H]4C/C(=C/C(=O)OC)C[C@H](/C=C/C(C)(C)[C@]1(O)O2)O4)O3 [bryostatin-1]
translocation of PKCθ (PKCθ): translocated
translocation of PKCζ (PKCζ): fail to induce translocation
translocation of PKCγ from cytoplasm to plasma membrane (PKCγ): not with bryostatin-1
induction of respiratory burst (H2O2, DCFH-DA) [3]: All compounds except Bryostatin induced a respiratory burst
number of PKCβ transfected cells with Golgi-like fluorescence (PKCβ): decreases the number of cells

Compound: C/C=C(/C)C(=O)O[C@H]1C(C)=C[C@]23C(=O)[C@@H](C=C(COC(C)=O)[C@@H](O)[C@]12O)[C@H]1[C@@H](C[C@H]3C)C1(C)C [PEP008, 20-O-acetyl-ingenol-3-angelate]
survival of melanoma cells [4]: 12%
survival of normal fibroblasts [5]: 100%
phagocytosis of fluorescent latex spheres in PBMCs [2]: stimulate phagocytosis
increase in adenovirus replication (number of stained cells) (adenovirus 5; 226 ng/mL): 248%
survival of melanoma cells [6]: 9%
survival of normal fibroblasts [7]: 100%
